Source: patent US11976083B2, “Inhibitors of peptidylarginine deiminases” (Gilead Sciences, Inc., priority 2020, dated 2024)

Target: T1, human PAD4 (Homo sapiens, UniProt Q9UM07)
T1 construct: human PAD4 (NM_012387), A2-P663, was PCR amplified; His-SUMO (N, cleaved yes); made in house; host or cells: E. coli BL21(DE3)
Experiment: In vitro PAD4 BAEE biochemical assay
Conditions: BAEE substrate 3 mM, 5 nM PAD4, 2 mM calcium chloride; geometric mean of multiple experiments
Procedure, shortened: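 PAD4 5 nM, CaCl2 2 mM, BAEE 3 mM final; 50 mM MOPS pH 7.6, 50 mM NaCl, 0.05% Tween-20, 2 mM DTT. Cpd + enzyme 30 min 25 °C; substrate 2 h 25 °C; EDTA stop; OPA detection 1 h. IC50 4-parameter fit.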

T1 sequence (Q9UM07 2-663): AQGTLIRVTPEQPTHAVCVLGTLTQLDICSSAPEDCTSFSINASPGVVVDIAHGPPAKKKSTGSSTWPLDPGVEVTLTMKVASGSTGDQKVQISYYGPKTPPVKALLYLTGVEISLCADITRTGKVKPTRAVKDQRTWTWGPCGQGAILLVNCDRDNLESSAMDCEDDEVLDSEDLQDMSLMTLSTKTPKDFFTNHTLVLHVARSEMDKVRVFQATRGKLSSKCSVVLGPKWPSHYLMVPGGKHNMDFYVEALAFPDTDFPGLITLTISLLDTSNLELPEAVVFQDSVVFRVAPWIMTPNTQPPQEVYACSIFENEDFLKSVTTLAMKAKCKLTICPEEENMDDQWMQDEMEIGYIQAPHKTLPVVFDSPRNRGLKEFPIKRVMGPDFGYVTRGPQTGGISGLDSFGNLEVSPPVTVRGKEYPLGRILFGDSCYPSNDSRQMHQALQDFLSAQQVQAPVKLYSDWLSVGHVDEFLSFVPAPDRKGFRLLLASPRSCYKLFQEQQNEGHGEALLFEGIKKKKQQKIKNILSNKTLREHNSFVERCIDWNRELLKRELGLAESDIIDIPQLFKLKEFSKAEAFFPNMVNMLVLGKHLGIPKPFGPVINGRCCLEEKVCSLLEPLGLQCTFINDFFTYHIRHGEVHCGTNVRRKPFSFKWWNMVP

| IC50 [nM] | SMILES |
| --- | --- |
| 37 | C[C@H]1NC(=O)c2cc(Cl)ncc2CCCCCn2c(-c3nc4cc(C(=O)N[C@H]5CNCC[C@@H]5F)c(F)cc4n3C3CC3)cc3ccc1nc32 [Example 356, 2-[(2~{R})-7-chloro-2-methyl-4-oxo-3,8,16,22-tetrazatetracyclo[14.5.2.0^{5,10).0^{19,23}]tricosa-1(22),5,7,9,17,19(23),20-heptaen-17-yl]-1-cyclopropyl-6-fluoro-~ {N}-[(3~{S},4~{S})-4-fluoro-3-piperidyl]benzimidazole-5-carboxamide] |
| 19 | COc1cc(C(=O)N2C[C@H](N)[C@@H]3CC[C@H]2C3)cc2nc(-c3cc4ccc5nc4n3CCCCC[C@@]3(F)C[C@H]3C(=O)N[C@@H]5C)n(C)c12 [Example 711, (2~{R},5~{S},7~{R})-14-[5-[(1~{S),4~{R},5~{R})-4-amino-2-azabicyclo[3.2.1]octane-2-carbonyl]-7-methoxy-1-methyl-benzimidazol-2-yl]-7-fluoro-2-methyl-3,13,19-triazatetracyclo[11.5.2.0^ {5,7}.0^{16,20}]icosa-1(19), 14,16(20),17-tetraen-4-one] |
| 68 | COc1cc(C(=O)N2CC[C@@H](OC)[C@@H](N)C2)cc2nc(-c3cc4ccc5cc4n3CCCCCc3nccnc3C(=O)N[C@@H]5C)n(C)c12 [Example 576, (2~{R})-17-[5-[(3~{S},4~ {R})-3-amino-4-methoxy-piperidine-1-carbonyl]-7-methoxy-1-methyl-benzimidazol-2-yl]-2-methyl-3,6,9,16-tetrazatetracyclo[14.5.2.0^ {5,10}.0^{19,23}] tricosa-1(22),5(10),6,8,17, 19(23),20-heptaen-4-one] |
| 50 | C[C@H]1NC(=O)c2c(ccnc2C(F)(F)F)CCCCCn2c(-c3nc4cc(C(=O)N5C[C@H](N)[C@@H]6CC[C@H]5C6)cc(F)c4n3C3CC3)cc3ccc1nc32 [Example 478, (2~{R})-17-[5-[(1~{S},4~{R},5~{R})-4-amino-2-azabicyclo[3.2.1]octane-2-carbonyl]-1-cyclopropyl-7-fluoro-benzimidazol-2-yl]-2-methyl-6-(trifluoromethyl)-3,7,16,22-tetrazatetracyclo[14.5.2.0^{5,10).0^{19,23}] tricosa-1(22),5(10),6,8,17,19(23),20-heptaen-4-one] |
| 54 | C[C@H]1NS(=O)(=O)CCCC/C=C/Cn2c(-c3nc4cc(C(=O)N[C@H]5CNCC[C@@H]5F)c(F)cc4n3C)cc3ccc1nc32 [Example 497, 6-fluoro-~{N}-[(3~ {S},4~{S})-4-fluoro-3-piperidyl]-1-methyl-2-[(3~{E},11~{R})-11-methyl-9,9-dioxo-9$1^6-thia-1,10,19-triazatricyclo[10.5.2.0^{15,18}]nonadeca-3,12(19),13,15 (18),16-pentaen-17-yl]benzimidazole-5-carboxamide] |
| 97 | COc1cc(C(=O)N2CCC[C@@H](N)C2)cc2nc(-c3cc4ccc5nc4n3CC(C)(C)CCCCCC(=O)N[C@@H]5C)n(C)c12 [Example 140, (11~{R})-17-[5-[(3~{R})-3-aminopiperidine-1-carbonyl]-7-methoxy-1-methyl-benzimidazol-2-yl]-3,3,11-trimethyl-1,10,19-triazatricyclo[10.5.2.0^{15,18}]nonadeca-12(19),13,15(18),16-tetraen-9-one] |
| 97 | C[C@H]1NC(=O)C(C)(C)CCCCCCn2c(-c3nc4cc(C(=O)N[C@H]5CNCC[C@@H]5F)c(F)cc4n3C3C[C@@H]3F)cc3ccc1nc32 (stereo partly drawn) [Example 602, (1~{R})-6-fluoro-1-[(2~{S})-2-fluorocyclopropyl]-~{N}-[(3~{S},4~{S})-4-fluoro-3-piperidyl]-2-[(11~{R})-8,8,11-trimethyl-9-oxo-1,10,19-triazatricyclo [10.5.2.0^{15,18}]nonadeca-12,14,16,18-tetraen-17-yl]benzimidazole-5-carboxamide] |
| 172 | COc1cc(C(=O)N2CC[C@@H](OC(F)F)[C@@H](N)C2)cc2nc(-c3cc4ccc5nc4n3CC(F)(F)CCCCC(C)(C)C(=O)N[C@@H]5C)n(C)c12 [Example 609, (11~{R})-17-[5-[(3~{S}, 4~{R})-3-amino-4-(difluoromethoxy)piperidine-1-carbonyl]-7-methoxy-1-methyl-benzimidazol-2-yl]-3,3-difluoro-8,8,11-trimethyl-1,10,19-triazatricyclo[10.5.2.0^ {15,18}]nonadeca-12,14,16,18-tetraen-9-one] |
| 18 | COc1cc(C(=O)N2C[C@H](N)C[C@@H](F)C2)cc2nc(-c3cc4ccc5nc4n3CCCCCc3nc4ccsc4cc3C(=O)N[C@@H]5C)n(C)c12 [Example 794, (2~{R})-20-[5-[(3~{R},5~{R})-3-amino-5-fluoro-piperidine-1-carbonyl]-7-methoxy-1-methyl-benzimidazol-2-yl]-2-methyl-8-thia-3,12,19,25-tetrazapentacyclo[17.5.2.0^ {5,13}.0^{7,11).0^{22,26}] hexacosa-1(24),5(13), 6,9,11,20,22,25-octaen-4-one] |
| 62 | COc1cc(C(=O)N2CCC[C@@H](N)C2)cc2nc(-c3cc4ccc5cc4n3CCCCCCC3(CC3)C(=O)N[C@@H]5C)n(C3CC3)c12 [Example 159, (11~{R})-17-[5-[(3~{R})-3-aminopiperidine-1-carbonyl]-1-cyclopropyl-7-methoxy-benzimidazol-2-yl]-11-methyl-spiro[1,10-diazatricyclo[10.5.2.0^{15,18}]nonadeca-12(19),13,15(18),16-tetraene-8,1′-cyclopropane]-9-one] |
| 215 | COc1cc(C(=O)N2CCC(OC3CC3)C(N)C2)cc2nc(-c3cc4ccc5nc4n3CCCCCCC(C)(C)C(=O)N[C@@H]5C)n(C)c12 (stereo partly drawn) [Example 527, (11~{R})-17-[5-[3-amino-4-(cyclopropoxy)piperidine-1-carbonyl]-7-methoxy-1-methyl-benzimidazol-2-yl]-8,8,11-trimethyl-1,10,19-triazatricyclo[10.5.2.0^ {15,18}]nonadeca-12(19),13,15(18), 16-tetraen-9-one] |
| 69 | COc1cc(C(=O)N2[C@H]3CC[C@@H]2[C@H](N)C3)cc2nc(-c3cc4ccc5nc4n3CCC3(CC3)COCCC(=O)N[C@@H]5C)c(C)n12 [Example 331, (11~{R})-17-[7-[(1~{R},2~{R},4~{S})-2-amino-7-azabicyclo[2.2.1]heptane-7-carbonyl]-5-methoxy-3-methyl-imidazo[1,2-a]pyridin-2-yl]-11-methyl-spiro[6-oxa-1,10,19-triazatricyclo[10.5.2.0^{15,18}]nonadeca-12(19),13,15(18),16-tetraene-4,1′-cyclopropane]-9-one] |
| 31 | COc1cc(C(=O)N2[C@H]3CC[C@@H]2[C@H](N)C3)cc2nc(-c3cc4ccc5nc4n3CCCCCCCCC(=O)N5C)c(C)n12 [Example 127, 17-[7-[(1˜{R},2˜{R},4˜{S})-2-amino-7-azabicyclo[2.2.1]heptane-7-carbonyl]-5-methoxy-3-methyl-imidazo[1,2-a]pyridin-2-yl]-11-methyl-1,11,19-triazatricyclo[10.5.2.0^{15,18}]nonadeca-12(19),13,15(18),16-tetraen-10-one] |
| 24 | COc1cc(C(=O)N2CC[C@@H](OC)[C@@H](N)C2)cc2nc(-c3cc4ccc5nc4n3CCCCCC[C@](F)(c3ccccn3)C(=O)N[C@@H]5C)n(C)c12 [Example 869, (8~{S},11~{R})-17-[5-[(3~ {S},4~{R})-3-amino-4-methoxy-piperidine-1-carbonyl]-7-methoxy-1-methyl-benzimidazol-2-yl]-8-fluoro-11-methyl-8-(2-pyridyl)-1,10,19-triazatricyclo[10.5.2.0^ {15,18}]nonadeca-12(19), 13,15(18),16-tetraen-9-one] |
| 59 | COc1cc(C(=O)N2CC[C@@H](OC)[C@@H](N)C2)cc2nc(-c3cc4ccc5nc4n3CCCCCc3cncc(Cl)c3C(=O)N[C@@H]5C)n(C)c12 [Example 651, (2~{R})-17-[5-[(3~{S}, 4~{R})-3-amino-4-methoxy-piperidine-1-carbonyl]-7-methoxy-1-methyl-benzimidazol-2-yl]-6-chloro-2-methyl-3,8,16,22-tetrazatetracyclo[14.5.2.0^ {5,10).0^{19,23}]tricosa-1(22),5,7,9,17,19(23),20-heptaen-4-one] |
| 41 | C[C@H]1NC(=O)C(C)(C)CCCCCCn2c(-c3nc4cc(C(=O)N[C@H]5CNCC[C@@H]5F)c(F)cc4n3C)cc3ccc1cc32 [Example 565, 6-fluoro-~{N}-[(3~{S}, 4~{S})-4-fluoro-3-piperidyl]-1-methyl-2-[(11~{R})-8,8,11-trimethyl-9-oxo-1,10-diazatricyclo[10.5.2.0^ {15,18}]nonadeca-12(19),13,15(18),16-tetraen-17-yl] benzimidazole-5-carboxamide] |
| 67 | COc1cc(C(=O)N2C[C@H](N)[C@@H]3CC[C@H]2C3)cc2nc(-c3cc4ccc5nc4n3CC(F)(F)CCCOC3(CC3)C(=O)N[C@@H]5C)n(C)c12 [Example 761, (11~{R})-17-[5-[(1~{S},4~{R}, 5~{R})-4-amino-2-azabicyclo [3.2.1]octane-2-carbonyl]-7-methoxy-1-methyl-benzimidazol-2-yl]-3,3-difluoro-11-methyl-spiro[7-oxa-1,10,19-triazatricyclo[10.5.2.0^ {15,18}]nonadeca-12(19), 13,15(18),16-tetraene-8,1′-cyclopropane]-9-one] |
| 61 | COc1cc(C(=O)N2[C@H]3CC[C@@H]2[C@H](N)C3)cc2nc(-c3cc4ccc5cc4n3CCCCCC[C@@](C)(OC)C(=O)N[C@@H]5C)n(C)c12 [Example 340, (8~{R},11~{R})-17-[5-[(1~{R},2~{R},4~{S})-2-amino-7-azabicyclo[2.2.1]heptane-7-carbonyl]-7-methoxy-1-methyl-benzimidazol-2-yl]-8-methoxy-8,11-dimethyl-1,10-diazatricyclo[10.5.2.0^{15,18}]nonadeca-12(19),13,15(18),16-tetraen-9-one] |
